# Literature values as cited in patent US10772323B2, “Benzoic acid herbicide composition” (NUFARM AUSTRALIA LIMITED, priority 2015, dated 2020).
# Conditions: acid form; 25° C.
smiles,measurement,value
"COc1c(Cl)ccc(Cl)c1C(=O)O [dicamba, 3,6-dichloro-2-methoxybenzoic acid]",water solubility,about 4500 mg/L
